Results from patent publication US6011019A, “Vasoactive effects and free radical generation by β-amyloid peptides” (University of South Florida, priority 1996, dated 2000).

Experiments:
[1] = test system: rat coronary arteries; test: Rat coronary artery constriction and relaxation (U46619, acetylcholine); conditions: single dose 10^-6 M; preconstricted with 10^-7 M U46619
Method: The effects of β-amyloid peptide were examined on samples of rat coronary arteries prepared as described above. Referring specifically to FIG. 1, rat coronary arteries were treated with β-amyloid peptide (Aβ40) causing constriction of the coronary arteries.
FIG. 3 illustrates the effect of various amyloid fragments on the constriction of rat coronary arteries. Following control constriction with 10^-7 M U46619, the tissue samples were rinsed, equilibrated with buffer, and treated with 10^-6 M Aβ peptides for fifteen minutes. Following treatment with the Aβ peptides, the blood vessels were rinsed and again exposed to U46619. The values are expressed as percent of control constriction produced by U46619 alone.
The effect of pretreatment of coronary arteries with a single dose (10^-6 M) of A40 on acetylcholine induced relaxation is shown in FIG. 20. The blood vessel was preconstricted with 10^-7 M U46619 and relaxed with increasing doses of acetylcholine (10^-9 M to 10^-5 M).

[2] = test system: aortic rings; test: β-amyloid augmentation of phenylephrine (PE) induced contraction of aortic rings; parameters: species or system rat; conditions: for PE induced contraction, +β-Amyloid P1 (±SEM): after 10^-6 M β-amyloid, maximum contraction without β-amyloid = 100%; for PE induced contraction, +β-Amyloid P2 (±SEM): repeated contraction after washing, no further β-amyloid
Method: (§1) The blood vessel preparations were mounted on stainless steel hooks attached to a force-displacement transducer and equilibrated under the optimum tension of 1.3 g for a period of sixty minutes in a tissue bath (10 ml) containing oxygenated (5% CO2 in O2) Kreb's buffer at 37° C. The buffer was changed every fifteen minutes. After equilibration for sixty minutes the viability of the blood vessel with intact endothelium was established by constricting the blood vessel using phenylephrine ([…]). This dose of phenylephrine elicited 80% of the maximum response. […] The vessel preparations were washed for fifteen minutes before various manipulations as described below.
The procedure was then repeated following incubation of the tissue with 10^-6 M β-amyloid for fifteen minutes (P1). The tissue was then rinsed and contractions repeated twice following fifteen minute incubation (P2 & P3) without further addition of β-amyloid. Arrows are shown for points of addition for P3.
Following a fifteen minute incubation, the preparations were contracted with 10^-7 M phenylephrine (PE) as described earlier. Control contractions with PE alone were carried out in presence of the various test compounds. Values represent the mean±SEM of four or more experiments. The heat-inactivated SOD was prepared by placing it in boiling water for thirty minutes followed by cooling prior to use. The hydrogen peroxide-inactivated SOD was prepared by exposing SOD to 10 mM H2 O2 for thirty minutes at pH 8.5 and subsequent separation using Microcon filtration system. The amyloid induced PE contraction was blocked by active SOD. Neither albumin or inactivated SOD had any effect on the amyloid activity.
The effect of preincubation of blood vessel with 10^-6 M β-amyloidon contraction induced by phenylephrine (2, 4, 8, & 16×10^-8 M is shown in Table 1). The maximum contraction in the absence of β-amyloid is taken as 100% and the values obtained following exposure to β-amyloid are expressed as percent of control value. After washing out phenylephrine and acetylcholine of the control contraction, β-amyloid augmented the phenylephrine induced contractions (P1). This effect was blocked by SOD. Washing out the phenylephrine and acetylcholine of the post peptide contraction and repeating the contractions caused further enhancement (P2). Values represent the mean±SEM of nine or more experiments.
The tissue was then incubated for fifteen minutes with β-amyloid (5×10^-7 M) with or without the drug, followed by contractions with PE. The concentrations compounds used were: L-NMMA, an inhibitor of NO synthase (10^-4 M); indomethacin, an inhibitor of the cyclooxygenase pathway (10^-5 M); SQ 29548, a thromboxane A2 receptor antagonist (10^-5 M); and catalase (1000 units/ml). Values are represented as percentage of the maximal contraction obtained with β-amyloid and PE alone and standardized to remove the intrinsic effects (if any) of each drug on PE contraction alone. The results represent the mean±SEM of five or more experiments.

[3] = test system: bovine mid cerebral arteries; test: Bovine mid cerebral artery contraction (U46619) and bradykinin vasodilation; conditions: 1 μM β-amyloid for 15 minutes
Method: Freshly dissected bovine mid cerebral arteries were cut into 3 mm rings and studied in tissue chamber as described earlier. Contraction of the blood vessel to the vasoconstrictor U46619 was studied before and after treatment with 1 μM β-amyloid for 15 minutes. […] (See FIG. 24).

[4] = test system: blood vessel (rat aorta); test: Vascular response of blood vessel rings in tissue bath (basal tension, β-amyloid induced vasoactivity)
Method: Freshly excised rat and porcine blood vessels were placed in Kreb's bicarbonate buffer equilibrated with 5% CO2 in O2. The buffer composition consisted of 118.2 mM NaCl, 4.7 mM KCl, 1.2 mM MgSO4, 2.5 mM CaCl2, 1.2 mM NaH2 PO4, 23 mM NaHCO3 and 11.2 mM glucose. After cleaning the vessels free of fat and other adhering tissues, the vessels were cut into ring segments of approximately 3 mm in length. Care was taken not to damage the intimal surface.
The endothelium was removed from some preparations by rubbing the inside of the lumen with a metal spatula for six to ten seconds and subsequent rinsing with buffer. The removal of endothelium was confirmed by testing for relaxation to acetylcholine [Furchgott and Zawadzki, 1980].
as §1
Referring to FIG. 10, the arrow indicates the addition of 10^-6 M β-amyloid. The control tissue received no β-amyloid. SOD (150 units/ml) was added thirty seconds prior to the addition of β-amyloid. The maximum contraction induced by β-amyloid was 1.14±0.13 (g) and in presence of SOD the contraction was reduced to 0.04±0.02 (g). Values represent the mean±SEM of five separate experiments.

[5] = test system: endothelial cell layer in rat coronary artery; test: Electron microscopy of endothelial cell layer in rat coronary artery; conditions: β-amyloid thirty minutes at 10^-6 M
Method: The physiological effects of β-amyloid treatment on the coronary artery with and without pretreatment with SOD is shown in FIG. 7A-C. FIG. 7A-C are electron micrographs showing the endothelial cell layer in rat coronary artery. […] The tissue samples were kept in glutaraldehyde solution at 4° C. until processed and then rinsed with cacodylate buffer. The tissues were post-fixed with 1% buffered osmium tetroxide, dehydrated with grated ethanol solutions, and embedded in a mixture of eponaraldite. Ultra thin sections were stained with uranyl acetate and lead citrate and viewed on a model 7,000 Hitachi transmission electron microscope. The inset bar indicates two microns. The experiment was repeated three or more times with blood vessels from different animals. FIG. 7A is a control coronary artery and depicts normal endothelial cells closely adhering to the intimal elastic lamina lining of the lumen. […] FIG. 7C depicts a rat coronary artery pretreated with SOD (150 units/ml, for thirty seconds prior to the addition of β-amyloid).

## β-amyloid
[1]
  acetylcholine induced vasodilation after pretreatment: significantly reduced the vasodilation induced by acetylcholine
[2]; PE 2×10^-8 M
  PE induced contraction, +β-Amyloid P1 (±SEM): 13.3(5.9) percent of control value
  PE induced contraction, +β-Amyloid P2 (±SEM): 20(5.0) percent of control value
[2]; PE 4×10^-8 M
  PE induced contraction, +β-Amyloid P1 (±SEM): 75(6.0) percent of control value
  PE induced contraction, +β-Amyloid P2 (±SEM): 99(15.0) percent of control value
[2]; PE 8×10^-8 M
  PE induced contraction, +β-Amyloid P1 (±SEM): 105(15.0) percent of control value
  PE induced contraction, +β-Amyloid P2 (±SEM): 133(20.0) percent of control value
[2]; PE 16×10^-8 M
  PE induced contraction, +β-Amyloid P1 (±SEM): 128(11.7) percent of control value
  PE induced contraction, +β-Amyloid P2 (±SEM): 141(17.6) percent of control value
[2]; subsequent contraction with PE
  PE contraction after washing the β-amyloid treated tissue: showed further increase
[3]
  contraction induced by U46619 after β-amyloid: significantly increased
  vasodilatory effect of bradykinin after β-amyloid: markedly reduced
[4]; 10^-6 M β-amyloid, mean±SEM of five experiments
  maximum contraction induced by β-amyloid: 1.14 ± 0.13 g
[4]; after β-amyloid addition
  duration of contraction/relaxation activity: fifteen to twenty minutes
  initial detectable change: minor relaxation: < 0.1 g
  onset of vasoactivity: within thirty seconds
[4]; increasing concentration of β-amyloid, basal tension, intact endothelium
  constriction of the blood vessel: constricted the blood vessel in a concentration-dependent manner
[4]; vessels with and without endothelium
  endothelium dependence of the constricting effect: only occurred in the presence of endothelium
[5]
  endothelial layer morphology in rat coronary artery: Derangement of the endothelial layer, condensed nucleus, separation from the intimal elastic lamina, and areas of denuded internal elastic lamina
